Measured values taken from ChEMBL document CHEMBL6127052, “Discovery of membrane-targeting amphiphilic honokiol derivatives containing an oxazolethione moiety to combat methicillin-resistant Staphylococcus aureus (MRSA) infections” (Eur J Med Chem, 2024).
Active and inactive are the calls of the source. The rule behind the calls is not given here.

Key:
[1] = Toxicity in KM mouse infected with methicillin-resistant Staphylococcus aureus clinical isolate M12 assessed as damage in liver at 5 to 10 mg/kg, sc measured after 24 hrs by H and E staining based analysis; assay type: organism-based; details: in vivo, dose 5-10 mg/kg
[2] = test system: Staphylococcus aureus; assay: (§1) Antibacterial activity against methicillin-resistant Staphylococcus aureus clinical isolate M12 infected in sepsis BALB/c mouse model assessed as decrease in deformation of hepatocytes at 6 mg/kg, ip administered consecutively at 12 hr-interval for 24 hrs measured after 24 hrs post-last dose by H and E staining based analysis; assay type: functional, organism-based; details: time 48.0 hrs
[3] = Toxicity in BALB/c mouse assessed as edema in hepatocytes at 15 mg/kg, ip bid for 7 days; assay type: organism-based; details: in vivo, 168 h, time 7 day
[4] = Toxicity in KM mouse assessed as inflammatory cell infiltration in renal tubular epithelial cells at 20 mg/kg, sc measured after 24 hrs by H and E staining based analysis; assay type: organism-based; details: in vivo
[5] = Toxicity in BALB/c mouse assessed as feeding abnormality at <15 mg/kg, ip bid for 7 days; assay type: organism-based; details: in vivo, 168 h, time 7 day
[6] = Toxicity in KM mouse assessed as degeneration of renal tubular epithelial cells at 20 mg/kg, sc measured after 24 hrs by H and E staining based analysis; assay type: organism-based; details: in vivo
[7] = Toxicity in KM mouse infected with methicillin-resistant Staphylococcus aureus clinical isolate M12 assessed as histopathological abnormality in lung at 5 to 10 mg/kg, sc measured after 24 hrs by H and E staining based analysis; assay type: organism-based; details: in vivo, dose 5-10 mg/kg
[8] = test system: Staphylococcus aureus; assay: as §1, with “pathological change in red medulla” for “deformation”, “spleen” for “hepatocytes”; assay type: functional, organism-based; details: time 48.0 hrs
[9] = test system: Staphylococcus aureus; assay: as §1, with “degeneration” for “deformation”, “12” for “6”; assay type: functional, organism-based; details: time 48.0 hrs
[10] = test system: Staphylococcus aureus; assay: Antibacterial activity against methicillin-resistant Staphylococcus aureus clinical isolate M14 by CLSI based micro-broth dilution method; assay type: functional
[11] = test system: Staphylococcus aureus; assay: Induction of morphological changes in methicillin-resistant Staphylococcus aureus clinical isolate M12 assessed as concavity in cell membrane at 8 times MIC incubated for 4 hrs by SEM analysis; assay type: functional, organism-based
[12] = test system: Staphylococcus aureus; assay: Induction of morphological changes in methicillin-resistant Staphylococcus aureus clinical isolate M12 assessed as torn cell membrane at 8 times MIC incubated for 4 hrs by SEM analysis; assay type: functional, organism-based
[13] = Toxicity in BALB/c mouse assessed as degeneration of renal tubular epithelial cells at 15 mg/kg, ip bid for 7 days; assay type: organism-based; details: in vivo, 168 h, time 7 day
[14] = Toxicity in BALB/c mouse assessed as necrosis in hepatocytes at 15 mg/kg, ip bid for 7 days; assay type: organism-based; details: in vivo, 168 h, time 7 day
[15] = Toxicity in KM mouse assessed as change in platelet count at 20 mg/kg, sc measured after 24 hrs; assay type: organism-based; details: in vivo
[16] = Toxicity in KM mouse assessed as necrosis in cardiac muscle fibers at 20 mg/kg, sc measured after 24 hrs by H and E staining based analysis; assay type: organism-based; details: in vivo
[17] = test system: Staphylococcus aureus; assay: Antibacterial activity against methicillin-resistant Staphylococcus aureus clinical isolate M16 by CLSI based micro-broth dilution method; assay type: functional
[18] = test system: Staphylococcus aureus; assay: Bactericidal activity against methicillin-resistant Staphylococcus aureus clinical isolate M12 assessed as inhibition of bacterial growth at 4 times MIC incubated upto 8 hrs by time-kill assay; assay type: functional, organism-based
[19] = test system: Staphylococcus aureus; assay: Bactericidal activity against methicillin-resistant Staphylococcus aureus clinical isolate M12 infected in KM mouse assessed as decrease in inflammatory cells in dermis at 10 mg/kg, sc measured after 24 hrs; assay type: functional, organism-based
[20] = Toxicity in KM mouse assessed as change in urea level at 20 mg/kg, sc measured after 24 hrs; assay type: organism-based; details: in vivo
[21] = Toxicity in KM mouse assessed as necrosis in hepatocytes at 20 mg/kg, sc measured after 24 hrs by H and E staining based analysis; assay type: organism-based; details: in vivo
[22] = test system: Staphylococcus aureus; assay: Antibacterial activity against methicillin-resistant Staphylococcus aureus clinical isolate M17 by CLSI based micro-broth dilution method; assay type: functional
[23] = test system: Staphylococcus aureus; assay: Antibacterial activity against methicillin-resistant Staphylococcus aureus clinical isolate M12 infected in KM mouse assessed as intact skin at infection site at 10 mg/kg, sc measured after 24 hrs; assay type: functional, organism-based
[24] = Toxicity in KM mouse assessed as edema in renal tubular epithelial cells at 20 mg/kg, sc measured after 24 hrs by H and E staining based analysis; assay type: organism-based; details: in vivo
[25] = Stability in sheep plasma infected with methicillin-resistant Staphylococcus aureus clinical isolate M12 at 16 ug/ml pretreated compound with plasma for 6 hrs followed by bacterial infection for 16 to 18 hrs; assay type: ADME, cell-free, Ovis aries; details: at 16 µg/mL, time 22-24 hrs
[26] = test system: Staphylococcus aureus; assay: Antibacterial activity against methicillin-resistant Staphylococcus aureus clinical isolate M12 infected in sepsis BALB/c mouse model assessed as decrease in bacterial load in spleen at 12 mg/kg, ip administered consecutively at 12 hr-interval for 24 hrs measured after 24 hrs post-last dose; assay type: functional; details: time 48 hrs
[27] = test system: Staphylococcus aureus; assay: Induction of membrane depolarization in methicillin-resistant Staphylococcus aureus clinical isolate M12 at 8 to 32 times MIC measured every 2 mins for 10 times by DiSC3(5) dye based analysis; assay type: functional, organism-based; details: time 20.0 min
[28] = test system: Staphylococcus aureus; assay: Antibacterial activity against methicillin-resistant Staphylococcus aureus clinical isolate M21 by CLSI based micro-broth dilution method; assay type: functional
[29] = test system: Staphylococcus aureus; assay: Disruption of cell membrane in methicillin-resistant Staphylococcus aureus clinical isolate M12 assessed as accumulation of intracellular ROS level incubated for 40 mins by DCFH-DA probe based analysis; assay type: functional, organism-based; details: dose <= 128.0 µg/ml
[30] = Toxicity in KM mouse assessed as edema in lung epithelial cells at 20 mg/kg, sc measured after 24 hrs by H and E staining based analysis; assay type: organism-based; details: in vivo
[31] = test system: Staphylococcus aureus; assay: as §1, with “pathological change in white medulla” for “deformation”, “spleen” for “hepatocytes”, “12” for “6”; assay type: functional, organism-based; details: time 48.0 hrs
[32] = test system: Staphylococcus aureus; assay: Antibacterial activity against methicillin-resistant Staphylococcus aureus clinical isolate M12 infected in KM mouse assessed as decrease in erythematous pustules at infected skin on back of animal at 5 mg/kg, sc measured after 24 hrs; assay type: functional, organism-based
[33] = Toxicity in KM mouse assessed as change in albumin level at 20 mg/kg, sc measured after 24 hrs; assay type: organism-based; details: in vivo
[34] = Toxicity in KM mouse assessed as pathological change in heart at 20 mg/kg, sc measured after 24 hrs by H and E staining based analysis; assay type: organism-based; details: in vivo
[35] = Toxicity in BALB/c mouse assessed as edema in renal tubular epithelial cells at 15 mg/kg, ip bid for 7 days; assay type: organism-based; details: in vivo, 168 h, time 7 day
[36] = Toxicity in KM mouse assessed as inflammatory cell infiltration in cardiac muscle fibers at 20 mg/kg, sc measured after 24 hrs by H and E staining based analysis; assay type: organism-based; details: in vivo
[37] = Toxicity in BALB/c mouse assessed as degeneration of hepatocytes at 15 mg/kg, ip bid for 7 days; assay type: organism-based; details: in vivo, 168 h, time 7 day
[38] = test system: Staphylococcus aureus; assay: as §1, with “degeneration” for “deformation”, “renal tubular epithelial cells” for “hepatocytes”, “6 to 12” for “6”; assay type: functional, organism-based; details: dose 6-12 mg/kg, time 48.0 hrs
[39] = Toxicity in KM mouse assessed as degeneration in cardiac muscle fibers at 20 mg/kg, sc measured after 24 hrs by H and E staining based analysis; assay type: organism-based; details: in vivo

C=CCc1cc(-c2ccc(OCCC[N+](C)(C)CC(=O)NCCCC)c(CC=C)c2)c2oc(=S)n(Cc3ccc(F)cc3)c2c1.[Br-]
Activity [1]: Non-Toxic
Activity [2]: inactive
Activity [3]: Non-Toxic
Activity [4]: Non-Toxic
Activity [5]: Non-Toxic
Activity [6]: Non-Toxic
Activity [7]: Non-Toxic
Activity [8]: inactive
Activity [9]: Active
MIC [10]: 2 µg/mL
Activity [11]: Active
Activity [12]: Active
Activity [13]: Non-Toxic
Activity [14]: Non-Toxic
Activity [15]: Non-Toxic
Activity [16]: Non-Toxic
MIC [17]: 2 µg/mL
Activity [18]: Active
Activity [19]: Active
Activity [20]: Non-Toxic
Activity [21]: Non-Toxic
MIC [22]: 4 µg/mL
Activity [23]: Active
Activity [24]: Non-Toxic
Stability [25]: Stable
Activity [26]: 1.67 log10CFU/g
Activity [27]: Active
MIC [28]: 2 µg/mL
Activity [29]: Dose-Dependent Effect
Activity [30]: Non-Toxic
Activity [31]: Active
Activity [32]: inactive
Activity [33]: Non-Toxic
Activity [34]: Non-Toxic
Activity [35]: Non-Toxic
Activity [36]: Non-Toxic
Activity [37]: Non-Toxic
Activity [38]: Active
Activity [39]: Non-Toxic
